Assay results published in patent US7612064B2, “Sulfopyrroles” (Takeda Pharmaceutical Company Limited, priority 2003, dated 2009).

Assays:
[1] = test system: HeLa; test: MTS proliferation assay; assay type: cell-based, human; conditions: 72 h
In short: (§1)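 Absorbance at 492 nm after a 3 h MTS incubation reports viable cell number. Before that, compounds at 10 μM, 3 μM, 1 μM and 0.3 μM final stay on the cells for 72 h at culture conditions.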

[2] = test system: Jurkat; test: MTS proliferation assay; assay type: cell-based, human; conditions: 72 h
In short: as §1

[3] = test system: Jily; test: MTS proliferation assay; assay type: cell-based; conditions: 72 h
In short: as §1

[4] = test system: MRC5; test: MTS proliferation assay; assay type: cell-based; conditions: MRC5, 72 h
In short: as §1

[5] = test system: HeLa; test: PI staining for cell cycle distribution; assay type: cell-based, human; parameters: key: 0: no effect; 1: weak effect; 2: strong effect; conditions: HeLa 10μM, 48 h
Experimental: (§2) 1-2*10^5 cells are seeded into 24 well tissue culture plates and incubated for 24 h prior to compound addition. […] Adherent cells are harvested by trypsinization. The cell suspensions are fixed by adding 2 parts ice cold ethanol 100% while vortexing. Then the samples are stored for>2 h at −20° C. Subsequently the cells are washed with PBS once and resuspended in 250 μl PBS containing 50 μg/ml PI (Calbiochem # 537059), then the samples are incubated at 37° C. for 30 min and subsequently analyzed on a FACSCalibur™ monitoring linear PI fluorescence activity on FL2. The readout allows the detection of a possible direct or indirect influence of the tested compounds on the cell cycle. The following events can occur: a) Generation of a subG1 peak indicative for DNA fragmentation, b) increase of the cell population arrested in G2M phase. Both events are scored by 1 for weak and 2 for strong occurrence. 0 indicates no occurrence at all.

[6] = test system: Jurkat; test: PI staining for cell cycle distribution; assay type: cell-based, human; parameters: key: 0: no effect; 1: weak effect; 2: strong effect; conditions: Jurkat 3μM, 48 h
Experimental: as §2

[7] = Hoechst 33342 nuclear staining; assay type: cell-based; conditions: 24 h or 48 h incubation; for Hoechst 33342 nuclear staining score, H460: H460 cells; for Hoechst 33342 nuclear staining score, HeLa: HeLa cells; for Hoechst 33342 nuclear staining score, Jily: Jily cells; for Hoechst 33342 nuclear staining score, Jurkat: Jurkat cells; for Hoechst 33342 nuclear staining score, MRC5: MRC5 cells;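 on all read-outs here: apoptotic nuclei scored 0 none 1 weak under 50% of cells 2 strong over 50% of cells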
In short: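 After a further 30 min incubation, plates were inspected on a standard inverted fluorescence microscope. The fraction of apoptotic nuclei and other apoptosis-specific morphology were scored as 0 for no activity, 1 for weak activity in less than 50% of the cells, and 2 for strong activity in more than 50% of the cells.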

[8] = conc 0.1 (final concentrations in μM)
[9] = conc 0.3 (final concentrations in μM)
[10] = conc 1 (final concentrations in μM)
[11] = conc 3 (final concentrations in μM)

## COc1cc(-c2cc(CNc3ccc(-n4ccnc4)cc3)cn2S(=O)(=O)c2ccc(C)cc2)cc(OC)c1OC [Example 55]
[1]
  IC50: > 1 µM
[2]
  IC50: < 1 µM
[3]
  IC50: > 1 µM
[4]
  IC50: < 1 µM
[5]
  PI staining for cell cycle distribution, G2M: 2
  PI staining for cell cycle distribution, subG1: 0
[6]
  PI staining for cell cycle distribution, G2M: 1
  PI staining for cell cycle distribution, subG1: 0
[7]; [8]
  Hoechst 33342 nuclear staining score, H460: 0
  Hoechst 33342 nuclear staining score, HeLa: 0
  Hoechst 33342 nuclear staining score, Jily: 0
  Hoechst 33342 nuclear staining score, Jurkat: 0
  Hoechst 33342 nuclear staining score, MRC5: 0
  Hoechst 33342 nuclear staining score, PBLs: 0
[7]; [9]
  Hoechst 33342 nuclear staining score, H460: 0
  Hoechst 33342 nuclear staining score, HeLa: 0
  Hoechst 33342 nuclear staining score, Jily: 0
  Hoechst 33342 nuclear staining score, Jurkat: 0
  Hoechst 33342 nuclear staining score, MRC5: 0
  Hoechst 33342 nuclear staining score, PBLs: 0
[7]; [10]
  Hoechst 33342 nuclear staining score, H460: 0
  Hoechst 33342 nuclear staining score, HeLa: 1 (weak activity comprising less than 50% of the cells)
  Hoechst 33342 nuclear staining score, Jily: 2 (strong activity comprising more than 50% of the cells)
  Hoechst 33342 nuclear staining score, Jurkat: 2 (strong activity comprising more than 50% of the cells)
  Hoechst 33342 nuclear staining score, MRC5: 0
  Hoechst 33342 nuclear staining score, PBLs: 0
[7]; [11]
  Hoechst 33342 nuclear staining score, H460: 2 (strong activity comprising more than 50% of the cells)
  Hoechst 33342 nuclear staining score, HeLa: 2 (strong activity comprising more than 50% of the cells)
  Hoechst 33342 nuclear staining score, Jily: 2 (strong activity comprising more than 50% of the cells)
  Hoechst 33342 nuclear staining score, Jurkat: 2 (strong activity comprising more than 50% of the cells)
  Hoechst 33342 nuclear staining score, MRC5: 1 (weak activity comprising less than 50% of the cells)
  Hoechst 33342 nuclear staining score, PBLs: 0
